# Tested on: T1, C. testosteroni S44
# T1 construct: S44
# Assay: organism not typed
# Design: species or system Comamonas testosteroni S44; Broth dilution MIC in Mueller-Hinton broth, bacterial growth inhibition (CLSI)
# Settings: wild-type S44, MH broth
# Experimental: Minimal inhibitory concentration profiles of the recombinant E. coli DH5α ([Miller and Mekalanos, 1988]) expressing czoA (pCT-Zori::czoA) and the isogenic strains of C. testosteroni S44 (S44, ΔczoR, ΔczoR-C, ΔiscR, and ΔiscR-C) were determined by the broth dilution method ([Clinical and Laboratory Standards Institute, 2014]) using 11 β-lactams. For the recombinant E. coli DH5α, two β-lactamase inhibitors, clavulanic acid, and tazobactam were also tested. E. coli DH5α (pCT-Zori) was used as a control. Clavulanic acid and tazobactam were generally fixed at a concentration of 2 and 4 μg/ml, respectively ([Girlich et al., 2007]; [Naas et al., 2007]; [Lamoureaux et al., 2013]; [Clinical and Laboratory Standards Institute, 2014]). Moreover, growth tendency of the isogenic strains of S44 under stress of 11 β-lactams with concentration below MIC was evaluated through OD600 values. Isogenic strains of C. testosteroni S44 in exponential growth phase were inoculated with each of 11 β-lactams in MH medium at 37°C and OD600 values were determined using a spectrophotometer after growth for 24 h. Bacterial strains, plasmids, and [compound left out] primers used in this study are shown in Supplementary Table S1. All strains were grown at 37°C in Luria-Bertani (LB, Oxoid, United Kingdom) broth unless otherwise stated. Mueller-Hinton (MH, Beijing Land Bridge Technology, China) broth dilution was used to determine the minimal inhibitory concentration (MIC) of antibiotics. Antibiotic disk (Hangzhou Microbial Reagent, China) diffusion tests were used for the antibiotic susceptibility assay (cephalexin and cefazolin). […] Then, the seed [compound left out] was used directly in relevant experiments.
row,MIC,SMILES
1,> 2050 µg/mL,CC1(C)S[C@@H]2[C@H](NC(=O)[C@H](N)c3ccccc3)C(=O)N2[C@H]1C(=O)O [Ampicillin]
2,> 2050 µg/mL,CC1(C)S[C@@H]2[C@H](NC(=O)Cc3ccccc3)C(=O)N2[C@H]1C(=O)O [Benzylpenicillin]
3,> 1020 µg/mL,CC1=C(C(=O)O)N2C(=O)[C@@H](NC(=O)[C@H](N)c3ccccc3)[C@H]2SC1 [Cefalexin]
4,> 2050 µg/mL,Cc1nnc(SCC2=C(C(=O)O)N3C(=O)[C@@H](NC(=O)Cn4cnnn4)[C@H]3SC2)s1 [Cefazolin]
5,> 512 µg/mL,CO/N=C(\C(=O)N[C@@H]1C(=O)N2C(C(=O)[O-])=C(C[N+]3(C)CCCC3)CS[C@H]12)c1csc(N)n1 [Cefepime]
6,128 µg/mL,CO[C@@]1(NC(=O)Cc2cccs2)C(=O)N2C(C(=O)O)=C(COC(N)=O)CS[C@@H]21 [Cefoxitin]
7,128 µg/mL,CC(C)(O/N=C(\C(=O)N[C@@H]1C(=O)N2C(C(=O)[O-])=C(C[n+]3ccccc3)CS[C@H]12)c1csc(N)n1)C(=O)O [Ceftazidime]
8,> 1020 µg/mL,CO/N=C(\C(=O)N[C@@H]1C(=O)N2C(C(=O)O)=C(CSc3nc(=O)c(=O)[nH]n3C)CS[C@H]12)c1csc(N)n1 [Ceftriaxone]
9,> 128 µg/mL,CO/N=C(\C(=O)N[C@@H]1C(=O)N2C(C(=O)O)=C(COC(N)=O)CS[C@H]12)c1ccco1 [Cefuroxime]
10,8 µg/mL,C[C@@H](O)[C@H]1C(=O)N2C(C(=O)O)=C(SCCNC=N)C[C@H]12 [Imipenem]
11,1 µg/mL,C[C@@H](O)[C@H]1C(=O)N2C(C(=O)O)=C(S[C@@H]3CN[C@H](C(=O)N(C)C)C3)[C@H](C)[C@H]12 [Meropenem]

# — article PMC5744064, “Regulation of Class A β-Lactamase CzoA by CzoR and IscR in Comamonas testosteroni S44” (Frontiers in Microbiology, 2017)
